Data reported in US11279735B2, “Cyclic peptide antibiotics” (priority 2017, dated 2022).
Converted amounts (≈) assume the structure as drawn. *1 amine or outer side, *2 acyl side, *3 side chain or, on linkers, in order; H or OH if unused. Where a SMILES comes first, the peptide text is derived from it. [ ]: non-standard residue; d: D form. The star is where a group is joined. X12 = C[C@H](CO[C@H](CC12CC3CC(CC(C3)C1)C2)[C@@H](C)C(=O)[*:2])N[*:1]; X13 = C[C@H](CO[C@H](CC1CC2(CCC2)C1)[C@@H](C)C(=O)[*:2])N[*:1]; X5 = CCCC[C@@H](OC[C@@H](C)N[*:1])[C@@H](CCCC)C(=O)[*:2]; X2 = CCCCCC[C@@H](OC[C@@H](C)N[*:1])[C@@H](C)C(=O)[*:2]; aThr = C[C@H](O)[C@H](N)C(=O)O; NMeL = CN[C@@H](CC(C)C)C(=O)O; Chg = N[C@H](C(=O)O)C1CCCCC1; NMeNva = CCC[C@H](NC)C(=O)O; Dap = NC[C@H](N)C(=O)O; X3 = NC[C@@H](F)C*; X4 = NCC(F)(F)C*

test system: Escherichia coli (E. coli) strain CFT073 ATCC 700928; format: cell-based; conditions: ATCC 700928, 22 h
Outline: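 MICs were read after 22 h at 35 °C, with bacteria added to a final OD600 of 0.0005. Compounds were serially diluted 2-fold over ten concentrations from a top of 64, 4, 0.5 or 0.13 μg/mL (protocols 1–4). Medium was cation-adjusted Mueller Hinton II broth plus 0.002% Tween-80, following CLSI M07-A8.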

| SMILES | MIC |
| --- | --- |
| CCCCCC[C@H]1OC(=O)CNC(=O)[C@H]([C@H](C)O)NC(=O)[C@H](CN)NC(=O)[C@H](C2CCCCC2)NC(=O)[C@H](CC(C)C)N(C)C(=O)[C@@H]1Cc1ccc(-c2ccccc2)cc1 [Example 54, (6S,9S,12S,15S,18R,19R)-18-([1,1′-Biphenyl]-4-ylmethyl)-9-(aminomethyl)-12-cyclohexyl-19-hexyl-6-((S)-1-hydroxyethyl)-15-isobutyl-16-methyl-1-oxa-4,7,10,13,16-pentaazacyclononadecane-2,5,8,11,14,17-hexaone] | 8.7 µM (≈ 7.25 µg/mL) |
| CCCCCC[C@H]1OC(=O)CNC(=O)[C@H](CO)NC(=O)[C@H](CN)NC(=O)[C@H]([C@H](C)CC)NC(=O)[C@H](CC(C)C)N(C)C(=O)[C@@H]1C [Example 11, (6S,9S,12S,15S,18R,19R)-9-(aminomethyl)-19-hexyl-6-(hydroxymethyl)-15-isobutyl-16,18-dimethyl-12-[(1R)-1-methylpropyl]-1-oxa-4,7,10,13,16-pentazacyclononadecane-2,5,8,11,14,17-hexone] | 25 µM (≈ 16 µg/mL) |
| CCCCCCCCCC[C@H]1OC(=O)CNC(=O)[C@H](Cc2c[nH]nn2)NC(=O)[C@H](CN)NC(=O)[C@H](C2CCCCC2)NC(=O)[C@H](CC(C)C)N(C)C(=O)[C@@H]1C [Example 56, (6S,9S,12S,15S,18R,19R)-6-((1H-1,2,3-triazol-4-yl)methyl)-9-(aminomethyl)-12-cyclohexyl-19-decyl-15-isobutyl-16,18-dimethyl-1-oxa-4,7,10,13,16-pentaazacyclononadecane-2,5,8,11,14,17-hexaone] | 4.4 µM (≈ 3.41 µg/mL) |
| CC(C)C[C@H]1C(=O)N[C@@H](C2CCCCC2)C(=O)N[C@@H](CN)C(=O)N[C@@H]([C@H](C)O)C(=O)NCC(=O)O[C@H](CCCCCCC(C)(C)O)[C@@H](C)C(=O)N1C [Example 114, (6S,9S,12S,15S,18R,19R)-9-(aminomethyl)-12-cyclohexyl-19-(7-hydroxy-7-methyl-octyl)-15-isobutyl-16,18-dimethyl-6-[(1S)-1-hydroxyethyl]-1-oxa-4,7,10,13,16-pentazacyclononadecane-2,5,8,11,14,17-hexone] | 15 µM (≈ 11.1 µg/mL) |
| CC(C)C[C@H]1C(=O)N[C@@H](C2CCCCC2)C(=O)N[C@@H](CN)C(=O)N[C@@H]([C@H](C)O)C(=O)N[C@H](C)CO[C@H](CC23CC4CC(CC(C4)C2)C3)[C@@H](C)C(=O)N1C [Example 74, (3R,6S,9S,12S,15S,18R,19R)-19-(((1r,3R,5S)-Adamantan-1-yl)methyl)-9-(aminomethyl)-12-cyclohexyl-6-((S)-1-hydroxyethyl)-15-isobutyl-3,16,18-trimethyl-1-oxa-4,7,10,13,16-pentaazacyclononadecane-5,8,11,14,17-pentaone] (cyclo([Chg][Dap][aThr][X12][NMeL])) | 1.6 µM (≈ 1.19 µg/mL) |
| CCC[C@H]1C(=O)N[C@@H](C2CCCCC2)C(=O)N[C@@H](CN)C(=O)N[C@@H]([C@H](C)O)C(=O)N[C@H](C)CO[C@H](CC2CC3(CCC3)C2)[C@@H](C)C(=O)N1C [Example 156, (3R,6S,9S,12S,15S,18R,19R)-9-(Aminomethyl)-12-cyclohexyl-6-((S)-1-hydroxyethyl)-3,16,18-trimethyl-15-propyl-19-(spiro[3.3]heptan-2-ylmethyl)-1-oxa-4,7,10,13,16-pcntaazacyclononadecane-5,8,11,14,17-pentaone] (cyclo([Chg][Dap][aThr][X13][NMeNva])) | 2.2 µM (≈ 1.52 µg/mL) |
| CCCCCC[C@H]1OC[C@@H](C)NC(=O)[C@H]([C@H](C)O)NC(=O)[C@H](CN)NC(=O)[C@H](C2CCN(c3ccccc3)CC2)NC(=O)[C@H](CC(C)C)N(C)C(=O)[C@@H]1C [Example 148, (3R,6S,9S,12S,15S,18R,19R)-9-(Aminomethyl)-19-hexyl-6-((S)-1-hydroxyethyl)-15-isobutyl-3,16,18-trimethyl-12-(1-phenylpiperidin-4-yl)-1-oxa-4,7,10,13,16-pentaazacyclononadecane-5,8,11,14,17-pentaone] | 8.8 µM (≈ 6.67 µg/mL) |
| CCCCCC[C@H]1OC(=O)CNC(=O)[C@H]([C@H](C)O)NC(=O)[C@H](CN)NC(=O)[C@H]([C@H](C)CC)NC(=O)[C@H](CC(C)C)N(C)C(=O)[C@@H]1C [Example 34, (6S,9S,12S,15S,18R,19R)-9-(aminomethyl)-19-hexyl-6-[(1S)-1-hydroxyethyl]-15-isobutyl-16,18-dimethyl-12-[(1R)-1-methylpropyl]-1-oxa-4,7,10,13,16-pentazacyclononadecane-2,5,8,11,14,17-hexone] | 9.4 µM (≈ 6.16 µg/mL) |
| CCCCCC[C@H]1OC(=O)CNC(=O)[C@H]([C@H](C)O)NC(=O)[C@H](CN)NC(=O)[C@H](C2CCCCC2)NC(=O)[C@H](CC(C)C)N(C)C(=O)[C@@H]1Cc1ccc(OC)cc1 [Example 123, (6S,9S,12S,15S,18R,19R)-9-(aminomethyl)-12-cyclohexyl-19-hexyl-6-[(1S)-1-hydroxyethyl]-15-isobutyl-18-[(4-methoxyphenyl)methyl]-16-methyl-1-oxa-4,7,10,13,16-pentazacyclononadecane-2,5,8,11,14,17-hexone] | 12 µM (≈ 9.44 µg/mL) |
| CCCCCC[C@H]1OC(=O)CNC(=O)[C@H]([C@H](C)O)NC(=O)[C@H](CN)NC(=O)[C@H](C2CCCCC2)NC(=O)[C@H](CC(C)C)N(C)C(=O)[C@@H]1Cc1cccc(C)c1 [Example 119, (6S,9S,12S,15S,18R,19R)-9-(aminomethyl)-12-cyclohexyl-19-hexyl-15-isobutyl-16-methyl-18-(m-tolylmethyl)-6-[(1S)-1-hydroxyethyl]-1-oxa-4,7,10,13,16-pentazacyclononadecane-2,5,8,11,14,17-hexone] | 3.1 µM (≈ 2.39 µg/mL) |
| CC(C)CCCCCC[C@H]1OC(=O)CNC(=O)[C@H]([C@H](C)O)NC(=O)[C@H](CN)NC(=O)[C@H](C2CCCCC2)NC(=O)[C@H](CC(C)C)N(C)C(=O)[C@@H]1C [Example 65, (6S,9S,12S,15S,18R,19R)-9-(Aminomethyl)-12-cyclohexyl-6-((S)-1-hydroxyethyl)-15-isobutyl-16,18-dimethyl-19-(7-methyloctyl)-1-oxa-4,7,10,13,16-pentaazacyclononadecane-2,5,8,11,14,17-hexaone] | 0.78 µM (≈ 0.564 µg/mL) |
| CCCCCCCCCC[C@H]1OC(=O)[C@H](C)NC(=O)[C@H]([C@H](C)O)NC(=O)[C@H](CN)NC(=O)[C@H]([C@H](C)CC)NC(=O)[C@H](CC(C)C)N(C)C(=O)[C@@H]1C [Example 3, (3S,6S,9S,12S,15S,18R,19R)-9-(aminomethyl)-12-((R)-sec-butyl)-19-decyl-6-((S)-1-hydroxyethyl)-15-isobutyl-3,16,18-trimethyl-1-oxa-4,7,10,13,16-pentaazacyclononadecane-2,5,8,11,14,17-hexaone] | 3.1 µM (≈ 2.25 µg/mL) |
| CCCC[C@H]1OC[C@@H](C)NC(=O)[C@H]([C@H](C)O)NC(=O)[C@H](CN)NC(=O)[C@H](C2CCCCC2)NC(=O)[C@H](CCC)N(C)C(=O)[C@@H]1CCCC [Example 77, (3R,6S,9S,12S,15S,18R,19R)-9-(Aminomethyl)-18,19-dibutyl-12-cyclohexyl-6-((S)-1-hydroxyethyl)-3,16-dimethyl-15-propyl-1-oxa-4,7,10,13,16-pentaazacyclononadecane-5,8,11,14,17-pentaone] (cyclo([Chg][Dap][aThr][X5][NMeNva])) | 4.4 µM (≈ 3 µg/mL) |
| CCCCCC[C@H]1OC(=O)CNC(=O)[C@H]([C@H](C)O)NC(=O)[C@H](CN)NC(=O)[C@H](c2ccccc2)NC(=O)[C@H](CC(C)C)N(C)C(=O)[C@@H]1C [Example 98, (6S,9S,12S,15S,18R,19R)-9-(aminomethyl)-19-hexyl-15-isobutyl-16,18-dimethyl-12-phenyl-6-[(1S)-1-hydroxyethyl]-1-oxa-4,7,10,13,16-pentazacyclononadecane-2,5,8,11,14,17-hexone] | 71 µM (≈ 47.9 µg/mL) |
| CCCCCC[C@H]1OC[C@@H](C)NC(=O)[C@H](COCC(F)(F)CN)NC(=O)[C@H](CN)NC(=O)[C@H](C2CCCCC2)NC(=O)[C@H](CC(C)C)N(C)C(=O)[C@@H]1C [Example 81, (3R,6S,9S,12S,15S,18R,19R)-6-((3-Amino-2,2-difluoropropoxy)methyl)-9-(aminomethyl)-12-cyclohexyl-19-hexyl-15-isobutyl-3,16,18-trimethyl-1-oxa-4,7,10,13,16-pentaazacyclononadecane-5,8,11,14,17-pentaone] (cyclo([Chg][Dap]S(X4)[X2][NMeL])) | 12 µM (≈ 9.12 µg/mL) |
| CCCC[C@H]1OC(=O)CNC(=O)[C@H]([C@H](C)O)NC(=O)[C@H](CN)NC(=O)[C@H](C2CCCCC2)NC(=O)[C@H](CC(C)C)N(C)C(=O)[C@@H]1Cc1ccc(C)cc1 [Example 109, (6S,9S,12S,15S,18R,19R)-9-(aminomethyl)-19-butyl-12-cyclohexyl-15-isobutyl-16-methyl-18-(p-tolylmethyl)-6-[(1S)-1-hydroxyethyl]-1-oxa-4,7,10,13,16-pentazacyclononadecane-2,5,8,11,14,17-hexone] | 25 µM (≈ 18.6 µg/mL) |

same assay, conditions: E. coli CFT073 ATCC 700928; Mueller Hinton II cation adjusted Broth with 0.002% v/v Tween-80; 35° C. for 22 hours; lowest concentration that completely prevented bacterial growth

| SMILES | MIC |
| --- | --- |
| CCCCCCCCCC[C@H]1OC(=O)CNC(=O)[C@H](CO)NC(=O)[C@H](CO)NC(=O)[C@H]([C@@H](C)CC)NC(=O)[C@H](CC(C)C)N(C)C(=O)[C@@H]1C [Example 18, (6S,9S,12S,15S,18R,19R)-19-decyl-6,9-bis(hydroxymethyl)-15-isobutyl-16,18-dimethyl-12-[(1S)-1-methylpropyl]-1-oxa-4,7,10,13,16-pentazacyclononadecane-2,5,8,11,14,17-hexone] | 19 µM (≈ 13.3 µg/mL) |
| CCCCCC[C@H]1OC[C@@H](C)NC(=O)[C@H](COC[C@H](F)CN)NC(=O)[C@H](CN)NC(=O)[C@H](C2CCCCC2)NC(=O)[C@H](CC(C)C)N(C)C(=O)[C@@H]1C [Example 154, (3R,6S,9S,12S,15S,18R,19R)-6-(((R)-3-Amino-2-fluoropropoxy)methyl)-9-(aminomethyl)-12-cyclohexyl-19-hexyl-15-isobutyl-3,16,18-trimethyl-1-oxa-4,7,10,13,16-pentaazacyclononadecane-5,8,11,14,17-pentaone] (cyclo([Chg][Dap]S(X3)[X2][NMeL])) | 12 µM (≈ 8.9 µg/mL) |
